Laboratory results from patent US20070082910A1, “Specific nad(p)h oxidase inhibitor” (Mitsubishi Pharma Corporation, priority 2003, published 2007).
pIC50: −log10 of the molar value. Blank lines part the entries; values can stand above or below the molecule they belong to.

Columns and labels:
[1] = test system: NAD(P)H oxidase in diabetic rat aorta; test: Aorta NAD(P)H oxidase inhibitory effect, test compound added to aorta ring specimen in vitro; format: biochemical
Method: This ring specimen was preincubated in Krebs-Hepes buffer containing the test compound (compound A, compound B or DPI (SIGMA)) at 37° C. for 10 min, and then transferred to Krebs-Hepes buffer containing 0.25 mM lucigenin. […] The total value of chemiluminescence was calculated from AUC of the curve drawn by plotting the chemiluminescence value (vertical axis) relative to the measurement time (horizontal axis). The obtained chemiluminescence value was divided by the wet weight of the vascular ring specimen and standardized to the superoxide anion production per aorta unit weight.

[2] = test system: leukocyte NADPH oxidase; test: Effect on leukocyte NADPH oxidase (PMA-stimulated lucigenin chemiluminescence); format: cell-based, rat; details: for inhibitory rate (%), leukocyte NADPH oxidase: PMA-stimulated rat leukocytes, mean ± standard error; for inhibitory effect on leukocyte NADPH oxidase: result in words
Method: Blood was drawn from the abdominal aorta of normal male Wister rats (Japan SLC) and immediately mixed with an ice-cold lysis buffer at 42 mL of the buffer per 3 mL of the blood.
After 5 min, the mixture was centrifuged at 4° C., 1100 rpm for 5 min. The precipitate was suspended in an ice-cold Lysis buffer, and centrifuged again at 4° C., 1100 rpm for 5 min. This operation was repeated 3 times to obtain leukocytes. The obtained leukocytes were suspended in Krebs-Hepes buffer and the number of the cells was adjusted to 1×10^6/ml. 0.25 mM Lucigenin and the test agent were added, Phorbol 12-myristate 13-acetate (hereinafter to be indicated as “PMA”, SIGMA) was further added, and the chemiluminescence value was measured at 37° C. for 10 min.
The inhibitory rate (%) was calculated by the following formula: inhibitory rate (%)=100−[(A−C)/(B−C))×[…] wherein A is the total chemiluminescence value of the leukocyte suspension with the addition of the test compound, B is the total chemiluminescence value of the leukocyte suspension (control) without addition of the test compound, and C is the total chemiluminescence value of the leukocyte suspension without stimulation with PMA.

[3] = test system: cerebral infarction model; test: Cerebral infarction model (ischemic brain disorder model), ligation of both common carotid arteries; format: in vivo, mouse
Method: Male ICR mice (Japan SLC) were anesthetized with ether and fixed in the dorsal position. The both common carotid arteries were ligated using a thread. The wound was closed, and the mice were released in a cage. The death of the mouse was confirmed every 30 min up to 240 min, and cumulative mortality rate of each group was determined. Compound B was orally administered 1 hr before common carotid artery ligation.

[4] = test system: NAD(P)H oxidase in diabetic rat aorta; test: NAD(P)H oxidase activity (superoxide anion production, lucigenin chemiluminescence) in aorta of streptozotocin diabetic rats after oral administration; format: in vivo; details: once a day for 3 days
Method: Streptozotocin (40 mg/kg) dissolved in 0.05 M citric acid buffer (pH 4.5) was administered into the tail vein of male Wistar rats (Japan SLC) to prepare diabetic rats. At 1 week to 8 weeks from the intravenous injection of streptozotocin, blood was drawn from the tail vein using a capillary treated with heparin, which was immediately cooled with ice and centrifuged at 3000 rpm, 15 min, 4° C. to give serum. The blood glucose level was measured by enzyme assay using a glucose measurement kit “GLU neo sinotest” (sinotest) and a microplate reader (SPECTRA MAX250, Molecular Devices).
The NAD(P)H oxidase activity was measured by the following method, which was modified by the method of the David. G. Harrison et al. (J. Clin. Invest. 91, 2546-2551, 1993), at 4 days from the start of the test, with superoxide anion production in aorta as an index.
To be specific, normal rat or diabetic rat free of the above-mentioned treatment was exsanguinated from the abdominal aorta, their thoracic aorta was removed. The removed thoracic aorta was immersed in Krebs-Hepes buffer and marginal tissues were removed to prepare an about 5 mm ring specimen. This ring specimen was preincubate in Krebs-Hepes buffer at 37° C. for 10 min and transferred to Krebs-Hepes buffer containing 0.25 mM lucigenin (SIGMA). 500 μM NADH (SIGMA) was added and chemiluminescence value (chemiluminescence: unit RLU: relative light units) was measured using a luminometer (MULTI-BIOLUMAT LB9505C, Warrack.Berthold) at 37° C. for 10 min. The total value of chemiluminescence was calculated from the area under the curve (hereinafter to be referred to as “AUC”) drawn by plotting the chemiluminescence value (vertical axis) relative to the measurement time (horizontal axis). The measured total value of chemiluminescence was divided by the wet weight of the vascular ring specimen and standardized to the superoxide anion production per aorta unit weight.
The inhibitory rate (%) was calculated from the following formula: inhibitory rate (%)=100−[(A−C)/(B−C)]×100
wherein A was the standardized value of chemiluminescence of diabetic rat administered with the test compound, B was the standardized value of chemiluminescence of diabetic rat without administration of the test compound, and C was the standardized value of chemiluminescence of normal rat without administration of the test compound.

[5] = test system: NAD(P)H oxidase; test: IL-8 production inhibitory effect in HUVEC cultured with 44 mM glucose; format: cell-based, human; details: for pIC50: from dose-effect line by least squares; for inhibitory rate (%) of IL-8 production: 8 days
Method: NAD(P)HOxidase Inhibitory Effect (Method)
44 mM glucose was added to Human Umbilical Vein Endothelial Cells (Bio Whittaker, hereinafter to be indicated as “HUVEC”), and cells were cultured for 8 days. Then, a lysis buffer containing a surfactant, Triton-X Nonidet P-40, was added, and interleukin-8 (hereinafter to be indicated as “IL-8”) in the cell lysate, which had been produced by NAD(P)H oxidase was measured by an enzyme-linked […]. The test compound was added one day before glucose addition.
The inhibitory rate was calculated from the following formula: inhibitory rate (%)=100−[(A−C)/(B−C)]×100
wherein A is IL-8 production of a cell cultured in the presence of 44 mM glucose with addition of the test compound, B is IL-8 production of a cell cultured in the presence of 44 mM glucose without addition of the test compound, and C is IL-8 production of a cell cultured in the absence of 44 mM glucose and the test compound. The IC50 value was calculated from the dose-effect line drawn by the least squares method based on the obtained inhibitory rate.

[6] = test system: NAD(P)H oxidase in normal rat aorta; test: Effect on normal rat NAD(P)H oxidase (superoxide anion production in aorta after administration); format: in vivo; details: 10 mg/kg for 3 days
Method: The test compound (10 mg/kg) was administered to normal male Wistar rats (Japan SLC) for 3 days, and the production amount of superoxide anion in the aorta was measured in the same manner as in Experimental Example 2.
The inhibitory rate (%) was calculated by the following formula: inhibitory rate (%)=100−(A/B)×100 wherein A is the standardized chemiluminescence value of the rats administered with the test compound, and B is the standardized chemiluminescence value of the rats without administration of the test compound (control group).

[7] = test compound concentration 0.01 μM
[8] = test compound concentration 0.1 μM
[9] = test compound concentration 1 μM

Compound: c1ccc2c(c1)[I+]c1ccccc1-2 [DPI, diphenyleneiodonium, reference compound]
inhibitory rate (%) ([1]; 200 μM added to aorta ring in vitro): 45.1%
chemiluminescence (×10^5 RLU/wet weight of aorta) ([1]; 200 μM added to aorta ring in vitro, mean ± standard error): 5.2 ± 1.1 ×10^5 RLU/wet weight of aorta
NAD(P)H oxidase inhibitory effect on aorta ring in vitro ([1]; result in words): showed an NAD(P)H oxidase inhibitory effect
inhibitory rate (%), leukocyte NADPH oxidase ([2]; 200 μg/mL): 106.7 ± 0.2%
inhibitory effect on leukocyte NADPH oxidase [2]: showed an inhibitory effect on leukocyte NADPH oxidase

Compound: C[C@@H](Nc1nnc(-c2ccccc2)c2ccccc12)c1ccccc1 [compound B]
number of deaths in interval ([3]; 1 mg/kg oral 1 hr before ligation, 0-30 min): 15
number of deaths in interval ([3]; 1 mg/kg oral, 31-60 min): 2
number of deaths in interval ([3]; 1 mg/kg oral, 61-90 min): 2
number of deaths in interval ([3]; 1 mg/kg oral, 91-120 min): 0
number of deaths in interval ([3]; 1 mg/kg oral, 121-150 min): 0
number of deaths in interval ([3]; 1 mg/kg oral, 151-180 min): 0
number of deaths in interval ([3]; 1 mg/kg oral, 181-210 min): 0
number of deaths in interval ([3]; 1 mg/kg oral, 211-240 min): 0
cumulative mortality rate ([3]; 1 mg/kg oral, up to 30 min): 78.9%
cumulative mortality rate ([3]; 1 mg/kg oral, up to 60 min): 84.2%
cumulative mortality rate ([3]; 1 mg/kg oral, up to 90 min): 94.7%
number of deaths in interval ([3]; 3 mg/kg oral 1 hr before ligation, 0-30 min): 11
number of deaths in interval ([3]; 3 mg/kg oral, 31-60 min): 5
number of deaths in interval ([3]; 3 mg/kg oral, 61-90 min): 0
number of deaths in interval ([3]; 3 mg/kg oral, 91-120 min): 0
number of deaths in interval ([3]; 3 mg/kg oral, 121-150 min): 1
number of deaths in interval ([3]; 3 mg/kg oral, 151-180 min): 0
number of deaths in interval ([3]; 3 mg/kg oral, 181-210 min): 0
number of deaths in interval ([3]; 3 mg/kg oral, 211-240 min): 0
cumulative mortality rate ([3]; 3 mg/kg oral, up to 30 min): 57.9%
cumulative mortality rate ([3]; 3 mg/kg oral, up to 60 min): 84.2%
cumulative mortality rate ([3]; 3 mg/kg oral, up to 150 min): 89.5%
number of deaths in interval ([3]; 10 mg/kg oral 1 hr before ligation, 0-30 min): 8
number of deaths in interval ([3]; 10 mg/kg oral, 31-60 min): 6
number of deaths in interval ([3]; 10 mg/kg oral, 61-90 min): 2
number of deaths in interval ([3]; 10 mg/kg oral, 91-120 min): 1
number of deaths in interval ([3]; 10 mg/kg oral, 121-150 min): 0
number of deaths in interval ([3]; 10 mg/kg oral, 151-180 min): 0
number of deaths in interval ([3]; 10 mg/kg oral, 181-210 min): 0
number of deaths in interval ([3]; 10 mg/kg oral, 211-240 min): 0
cumulative mortality rate ([3]; 10 mg/kg oral, up to 30 min): 40.0%
cumulative mortality rate ([3]; 10 mg/kg oral, up to 60 min): 70.0%
cumulative mortality rate ([3]; 10 mg/kg oral, up to 90 min): 80.0%
cumulative mortality rate ([3]; 10 mg/kg oral, up to 120 min): 85.0%
mortality rate improving effect in brain ischemia model ([3]; result in words): a mortality rate improving effect was seen
inhibitory rate (%), NAD(P)H oxidase in diabetic rat aorta ([4]; 10 mg/kg oral): 88.5%
inhibitory rate (%), leukocyte NADPH oxidase ([2]; 1 μM): 11.7 ± 24.2%
inhibitory effect on leukocyte NADPH oxidase [2]: did not show an inhibitory effect on leukocyte NADPH oxidase
pIC50 [5]: > 8.00
inhibitory rate (%) of IL-8 production [5, 7]: 63.8%
inhibitory rate (%) of IL-8 production [5, 8]: 77.8%
inhibitory rate (%) of IL-8 production [5, 9]: 72.0%
inhibitory rate (%), NAD(P)H oxidase in normal rat aorta [6]: −1.3%
effect on superoxide anion production in normal rat ([6]; result in words): did not affect the superoxide anion production
chemiluminescence (×10^5 RLU/wet weight of aorta) ([6]; normal rat aorta, mean ± standard error): 4.01 ± 6.0 ×10^5 RLU/wet weight of aorta

Compound: O=C(O)c1nn(-c2ccccc2)c2ccccc2c1=O [compound C]
inhibitory rate (%), NAD(P)H oxidase in diabetic rat aorta ([4]; 0.01 mg/kg oral): 45%
inhibitory rate (%), NAD(P)H oxidase in diabetic rat aorta ([4]; 0.1 mg/kg oral): 90%
pIC50 [5]: 7.81
inhibitory rate (%) of IL-8 production [5, 7]: −2.5%
inhibitory rate (%) of IL-8 production [5, 8]: 53.7%
inhibitory rate (%) of IL-8 production [5, 9]: 97.7%

Compound: CCOC(=O)c1nn(-c2ccccc2)c2ccccc2c1=O [compound E]
pIC50 [5]: > 8.00
inhibitory rate (%) of IL-8 production [5, 7]: 96.3%
inhibitory rate (%) of IL-8 production [5, 9]: 91.0%

Further lines, with some results ahead:

pIC50 [5]: 7.95
Compound: NC(=O)c1nn(-c2ccccc2)c2ccccc2c1=O [compound D]
inhibitory rate (%), NAD(P)H oxidase in diabetic rat aorta ([4]; 0.01 mg/kg oral): 44%
inhibitory rate (%), NAD(P)H oxidase in diabetic rat aorta ([4]; 0.1 mg/kg oral): 72%
inhibitory rate (%) of IL-8 production [5, 7]: 45.4%
inhibitory rate (%) of IL-8 production [5, 8]: 98.3%
inhibitory rate (%) of IL-8 production [5, 9]: 100%

pIC50 [5]: 6.03
Compound: N#Cc1nn(-c2ccccc2)c2ccccc2c1=O [compound F]
inhibitory rate (%) of IL-8 production [5, 7]: 0%
inhibitory rate (%) of IL-8 production [5, 8]: 0%
inhibitory rate (%) of IL-8 production [5, 9]: 54.5%

pIC50 [5]: 6.66
Compound: N/C(=N\O)c1nn(-c2ccccc2)c2ccccc2c1=O [compound G]
inhibitory rate (%) of IL-8 production [5, 7]: 39.7%
inhibitory rate (%) of IL-8 production [5, 8]: 43.9%
inhibitory rate (%) of IL-8 production [5, 9]: 57.4%

pIC50 [5]: 7.16
Compound: Cc1cc(C)n(-c2nnc(-c3ccccc3)c3ccccc23)n1 [compound H]
inhibitory rate (%) of IL-8 production [5, 7]: 27.6%
inhibitory rate (%) of IL-8 production [5, 8]: 49.9%
inhibitory rate (%) of IL-8 production [5, 9]: 83.0%
